Source: the NIST ThermoML archive (doi:10.1016/j.jct.2015.08.014)
± gives the expanded uncertainty stated by the source.

Assay: xn = mol fraction of the nth substance listed
Details: 273.15 K, 100 kPa, Liquid; for electrical conductivity: Alternating current cell with electrodes; for viscosity: Capillary tube (Ostwald / Ubbelohde) method

CCCC[N+]1(C)CCCC1.N#CN=C=[N-] [1-butyl-1-methylpyrrolidinium dicyanamide] + O=C1CCCO1
Details	electrical conductivity [S/m]	viscosity [mPa·s]
x1 = 0.0463	0.977 ± 0.016	–
x1 = 0.0987	1.43 ± 0.017	4.69 ± 0.11
x1 = 0.1449	1.56 ± 0.016	–
x1 = 0.1859	1.634 ± 0.016	7.2 ± 0.16
x1 = 0.2493	1.517 ± 0.015	–
x1 = 0.3029	1.42 ± 0.015	12.03 ± 0.27
x1 = 0.3845	1.25 ± 0.013	–
x1 = 0.4985	1.03 ± 0.011	24.9 ± 0.56
x1 = 0.6954	0.742 ± 0.008	45.65 ± 1
x1 = 0.9013	0.562 ± 0.006	76.07 ± 1.8
x1 = 1	0.523 ± 0.005	93.95 ± 2.3

electrical conductivity [S/m]
Details	Frequency=0.0005 MHz	Frequency=0.001 MHz	Frequency=0.0015 MHz	Frequency=0.002 MHz	Frequency=0.0025 MHz	Frequency=0.003 MHz	Frequency=0.00347222 MHz	Frequency=0.004 MHz	Frequency=0.00446429 MHz
x1 = 0.0463	0.97 ± 0.016	0.973 ± 0.016	0.975 ± 0.016	0.975 ± 0.016	0.976 ± 0.016	0.976 ± 0.016	0.977 ± 0.016	0.977 ± 0.016	0.977 ± 0.016
x1 = 0.0987	1.41 ± 0.017	1.42 ± 0.017	1.42 ± 0.017	1.42 ± 0.017	1.42 ± 0.017	1.42 ± 0.017	1.42 ± 0.017	1.42 ± 0.017	–
x1 = 0.1449	1.56 ± 0.016	1.56 ± 0.016	1.56 ± 0.016	1.56 ± 0.016	1.56 ± 0.016	1.56 ± 0.016	1.56 ± 0.016	1.56 ± 0.016	–
x1 = 0.1859	1.619 ± 0.016	1.625 ± 0.016	1.627 ± 0.016	1.629 ± 0.016	1.63 ± 0.016	1.631 ± 0.016	1.632 ± 0.016	1.632 ± 0.016	–
x1 = 0.2493	1.513 ± 0.015	1.515 ± 0.015	1.515 ± 0.015	1.516 ± 0.015	1.516 ± 0.015	1.516 ± 0.015	1.516 ± 0.015	1.516 ± 0.015	–
x1 = 0.3029	1.42 ± 0.015	1.42 ± 0.015	1.42 ± 0.015	1.42 ± 0.015	1.42 ± 0.015	1.42 ± 0.015	1.42 ± 0.015	1.42 ± 0.015	–
x1 = 0.3845	1.25 ± 0.013	1.25 ± 0.013	1.25 ± 0.013	1.25 ± 0.013	1.25 ± 0.013	1.25 ± 0.013	1.25 ± 0.013	1.25 ± 0.013	–
x1 = 0.4985	1.03 ± 0.011	1.03 ± 0.011	1.03 ± 0.011	1.03 ± 0.011	1.03 ± 0.011	1.03 ± 0.011	1.03 ± 0.011	1.03 ± 0.011	–
x1 = 0.6954	0.741 ± 0.008	0.741 ± 0.008	0.741 ± 0.008	0.742 ± 0.008	0.742 ± 0.008	0.742 ± 0.008	0.742 ± 0.008	0.742 ± 0.008	–
x1 = 0.9013	0.561 ± 0.006	0.561 ± 0.006	0.562 ± 0.006	0.562 ± 0.006	0.562 ± 0.006	0.562 ± 0.006	0.562 ± 0.006	0.562 ± 0.006	–
x1 = 1	0.522 ± 0.005	0.522 ± 0.005	0.522 ± 0.005	0.522 ± 0.005	0.522 ± 0.005	0.522 ± 0.005	0.523 ± 0.005	0.523 ± 0.005	–
